Several values for one entry are separate records, joined by “and”; a condition that tells them apart may be missing. Equal entries are not always repeated. Inconclusive results and toxic doses are left out. Rule for the calls: active = survival T/C of 150% or more; inactive = T/C below 125% in these data. Square brackets hold non-standard residues; d marks the D form. Peptide text beside a SMILES is read from it. * marks the point of attachment. Cbz = O=C(OCc1ccccc1)*; Nva = CCC[CH](N)C(=O)O
Tested on: P388 leukemia ip, CD2F1 mice, survival T/C
Assay: NCI In Vivo Anticancer Drug Screen. Data for tumor model P388 Leukemia (intraperitoneal) in CD2F1 (CDF1) mice
Details: endpoint: median survival time, higher = longer survival
In short: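 Mice carrying the transplanted tumor received test compound or vehicle. Survival was recorded in each group, and the value is the treated-group measurement divided by that of the vehicle-treated control group.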

[1] = dose: 12.5 mg/kg/injection, schedule: Q01DX009 (ip), vehicle: Klucel (hydroxypropylcellulose) (HPC)
[2] = dose: 25.0 mg/kg/injection, schedule: Q01DX009 (ip), vehicle: Klucel (hydroxypropylcellulose) (HPC)
[3] = dose: 50.0 mg/kg/injection, schedule: Q01DX009 (ip), vehicle: Klucel (hydroxypropylcellulose) (HPC)
[4] = dose: 100.0 mg/kg/injection, schedule: Q01DX009 (ip), vehicle: Klucel (hydroxypropylcellulose) (HPC)
[5] = dose: 50.0 mg/kg/injection, schedule: Q01DX009 (ip), vehicle: saline with Tween-80
[6] = dose: 50.0 mg/kg/injection, schedule: Q01DX009 (ip), vehicle: saline
[7] = dose: 6.25 mg/kg/injection, schedule: Q01DX009 (ip), vehicle: Klucel (hydroxypropylcellulose) (HPC)
[8] = dose: 50.0 mg/kg/injection, schedule: Q01DX005 (ip), vehicle: Klucel (hydroxypropylcellulose) (HPC)
[9] = dose: 100.0 mg/kg/injection, schedule: Q01DX005 (ip), vehicle: Klucel (hydroxypropylcellulose) (HPC)
[10] = dose: 200.0 mg/kg/injection, schedule: Q01DX005 (ip), vehicle: Klucel (hydroxypropylcellulose) (HPC)
[11] = dose: 60.0 mg/kg/injection, schedule: Q01DX005 (ip), vehicle: saline with Tween-80
[12] = dose: 120.0 mg/kg/injection, schedule: Q01DX005 (ip), vehicle: saline with Tween-80
[13] = dose: 100.0 mg/kg/injection, schedule: Q01DX001 (ip), vehicle: Klucel (hydroxypropylcellulose) (HPC)
[14] = dose: 200.0 mg/kg/injection, schedule: Q01DX001 (ip), vehicle: Klucel (hydroxypropylcellulose) (HPC)
[15] = dose: 400.0 mg/kg/injection, schedule: Q01DX001 (ip), vehicle: Klucel (hydroxypropylcellulose) (HPC)
[16] = dose: 100.0 mg/kg/injection, schedule: Q01DX009 (ip), vehicle: saline with Tween-80
[17] = dose: 100.0 mg/kg/injection, schedule: Q01DX001 (ip), vehicle: saline with Tween-80
[18] = dose: 200.0 mg/kg/injection, schedule: Q01DX001 (ip), vehicle: saline with Tween-80
[19] = dose: 400.0 mg/kg/injection, schedule: Q01DX001 (ip), vehicle: saline with Tween-80
[20] = dose: 12.5 mg/kg/injection, schedule: Q01DX009 (ip), vehicle: saline
[21] = dose: 25.0 mg/kg/injection, schedule: Q01DX009 (ip), vehicle: saline

Measured: T/C

O=c1oc(-c2cc([N+](=O)[O-])cc([N+](=O)[O-])c2Cl)nc2ccccc12
inactive: [1] 103 % of control and 110 % of control | [2] 105 % of control and 110 % of control | [3] 103 % of control and 94 % of control | [4] 105 % of control

C/C(=N\N=C(\[Se])N(C)C)c1ccccn1
inactive: dose: 12.5 mg/kg/injection, schedule: Q04DX003 (ip), vehicle: saline with Tween-80 106 % of control | dose: 25.0 mg/kg/injection, schedule: Q04DX003 (ip), vehicle: saline with Tween-80 106 % of control | dose: 50.0 mg/kg/injection, schedule: Q04DX003 (ip), vehicle: saline with Tween-80 106 % of control

C1CC[N-]CC1.C1CC[N-]CC1.C1CC[N-]CC1.[Cr+6].[N-]=C=S.[N-]=C=S.[N-]=C=S
inactive: dose: 100.0 mg/kg/injection, schedule: Q04DX002 (ip), vehicle: acetone 97 % of control | dose: 100.0 mg/kg/injection, schedule: Q04DX002 (ip), vehicle: distilled water + alcohol 99 % of control | dose: 200.0 mg/kg/injection, schedule: Q04DX002 (ip), vehicle: acetone 97 % of control

O=C1c2ccccc2C(=O)N1S(=O)(=O)C/C=C/CCl
inactive: dose: 12.5 mg/kg/injection, schedule: Q01DX009 (ip), vehicle: saline with Tween-80 94 % of control | dose: 25.0 mg/kg/injection, schedule: Q01DX009 (ip), vehicle: saline with Tween-80 97 % of control | [5] 105 % of control | [6] 110 % of control | dose: 100.0 mg/kg/injection, schedule: Q01DX009 (ip), vehicle: saline 103 % of control | dose: 200.0 mg/kg/injection, schedule: Q01DX009 (ip), vehicle: saline 108 % of control

COC1=Cc2c(O)c3c(c(O)c2C(OC2CC(N)C(O)C(C)O2)C1)C(=O)c1c(OC)cccc1C3=O (stereo not given)
inactive: dose: 3.13 mg/kg/injection, schedule: Q04DX003 (ip), vehicle: water 98 % of control | dose: 6.25 mg/kg/injection, schedule: Q04DX003 (ip), vehicle: water 98 % of control | dose: 12.5 mg/kg/injection, schedule: Q04DX003 (ip), vehicle: water 102 % of control | dose: 25.0 mg/kg/injection, schedule: Q04DX003 (ip), vehicle: water 109 % of control | dose: 50.0 mg/kg/injection, schedule: Q04DX003 (ip), vehicle: water 107 % of control

O=c1ccc2cc(-c3ccncc3)cnc2[nH]1
inactive: dose: 25.0 mg/kg/injection, schedule: Q04DX002 (ip), vehicle: saline with Tween-80 100 % of control | dose: 50.0 mg/kg/injection, schedule: Q04DX002 (ip), vehicle: saline with Tween-80 94 % of control

CCCCCCCCCCCCCCCCCCSC1=CC(=O)C(OC)=C(OC)C1=O
inactive: dose: 3.13 mg/kg/injection, schedule: Q01DX009 (ip), vehicle: Klucel (hydroxypropylcellulose) (HPC) 92 % of control | [7] 100 % of control | [1] 100 % of control | [2] 92 % of control | [3] 97 % of control

CC1(C)OP(=O)(O)C=C1[Se]c1ccccc1
inactive: [8] 100 % of control | [9] 102 % of control | [10] 94 % of control

O=C(Nc1ccc(Cl)cc1)Nc1nnc2ncc3c(n12)CCCCCCCCCC3
inactive: [11] 102 % of control | [12] 87 % of control

CCCC(NC(=O)OCc1ccccc1)C(=O)NC(C(=O)O)C(C)C (stereo not given) (Cbz-[Nva]-Val-OH; configuration not given here)
inactive: [8] 94 % of control | [9] 92 % of control | [10] 96 % of control

C(=NCc1ccccc1)c1ccccc1-c1ccccc1C=NCc1ccccc1
inactive: [1] 92 % of control | [3] 86 % of control | [4] 100 % of control

CCC1=C(C(C)OCCO)C(=O)c2ccccc2C1=O (stereo not given)
inactive: dose: 50.0 mg/kg/injection, schedule: Q01DX005 (ip), vehicle: saline with Tween-80 96 % of control | dose: 100.0 mg/kg/injection, schedule: Q01DX005 (ip), vehicle: saline with Tween-80 100 % of control | dose: 200.0 mg/kg/injection, schedule: Q01DX005 (ip), vehicle: saline with Tween-80 94 % of control

CN1C(=O)NC(=O)C(C)(C2(Br)CCCCC2)C1=O (stereo not given)
inactive: [13] 106 % of control | [14] 99 % of control | [15] 99 % of control

O=C(O)c1cn2ccccc2c1[N+](=O)[O-]
inactive: dose: 100.0 mg/kg/injection, schedule: Q04DX002 (ip), vehicle: saline with Tween-80 94 % of control | dose: 200.0 mg/kg/injection, schedule: Q04DX002 (ip), vehicle: saline with Tween-80 92 % of control | dose: 400.0 mg/kg/injection, schedule: Q04DX002 (ip), vehicle: saline with Tween-80 96 % of control

CCCCCCCCCCCCCCCC[N+]1([O-])CCCC1
inactive: [6] 102 % of control

CC(C)(C)OC(=O)NCCCCC(NC(=O)OC(C)(C)C)C(=O)O (stereo not given)
inactive: [5] 102 % of control | [16] 101 % of control | dose: 200.0 mg/kg/injection, schedule: Q01DX009 (ip), vehicle: saline with Tween-80 92 % of control

CCCCCCCCCCCCCCCC[N+](C)(C)CCSC(C)=O
inactive: dose: 0.78 mg/kg/injection, schedule: Q01DX009 (ip), vehicle: acetone 100 % of control | dose: 1.56 mg/kg/injection, schedule: Q01DX009 (ip), vehicle: acetone 104 % of control | dose: 3.12 mg/kg/injection, schedule: Q01DX009 (ip), vehicle: acetone 104 % of control | dose: 6.25 mg/kg/injection, schedule: Q01DX009 (ip), vehicle: acetone 107 % of control

CCCCOC(=O)C1(N)CCCC1
inactive: dose: 100.0 mg/kg/injection, schedule: Q04DX003 (ip), vehicle: saline 100 % of control | dose: 200.0 mg/kg/injection, schedule: Q04DX003 (ip), vehicle: saline 109 % of control

CN(CC#CCN(C)C1=NC(=O)CC1)C1=NC(=O)CC1
inactive: dose: 60.0 mg/kg/injection, schedule: Q01DX005 (ip), vehicle: Klucel (hydroxypropylcellulose) (HPC) 92 % of control | dose: 120.0 mg/kg/injection, schedule: Q01DX005 (ip), vehicle: Klucel (hydroxypropylcellulose) (HPC) 94 % of control | dose: 240.0 mg/kg/injection, schedule: Q01DX005 (ip), vehicle: Klucel (hydroxypropylcellulose) (HPC) 100 % of control

Cc1c(NC(=S)Nc2ccc(Cl)c(Cl)c2)c(=O)n(-c2ccccc2)n1C
inactive: [3] 106 % of control | [4] 93 % of control | dose: 200.0 mg/kg/injection, schedule: Q01DX009 (ip), vehicle: Klucel (hydroxypropylcellulose) (HPC) 88 % of control

COCC1N=C(COCc2ccccc2)OC1c1ccccc1 (stereo not given)
inactive: [11] 100 % of control | [12] 95 % of control | dose: 240.0 mg/kg/injection, schedule: Q01DX005 (ip), vehicle: saline with Tween-80 100 % of control

COc1ccc(CCNC2=CNCC2)cc1OC
inactive: dose: 50.0 mg/kg/injection, schedule: Q01DX005 (ip), vehicle: saline 101 % of control | dose: 100.0 mg/kg/injection, schedule: Q01DX005 (ip), vehicle: saline 98 % of control | dose: 200.0 mg/kg/injection, schedule: Q01DX005 (ip), vehicle: saline 95 % of control

CSc1n[nH]c(N)c1C(N)=O
inactive: [17] 107 % of control | [18] 100 % of control | [19] 111 % of control

C=CC(=NC(C)(C)C)Nc1ccccc1Cl
inactive: dose: 3.12 mg/kg/injection, schedule: Q01DX009 (ip), vehicle: Klucel (hydroxypropylcellulose) (HPC) 104 % of control | [7] 103 % of control | dose: 6.25 mg/kg/injection, schedule: Q01DX009 (ip), vehicle: saline 116 % of control | [1] 102 % of control | [20] 118 % of control and 93 % of control | [21] 111 % of control

Cc1ccc(N=Nc2c(-c3ccccc3)nn(C(N)=S)c2C)cc1
inactive: [17] 92 % of control | [18] 97 % of control | [19] 103 % of control

O=C(O)Cc1cn2cc(Cl)ccc2n1
inactive: [13] 102 % of control | [14] 101 % of control | [15] 95 % of control

Cc1ccc2cccc(OC(=O)Nc3ccc(Cl)c(Cl)c3)c2n1
inactive: [20] 98 % of control | [21] 103 % of control | [5] 91 % of control | [6] 103 % of control | [16] 105 % of control

From PubChem BioAssay AID330 (DTP/NCI, 2004)
